Calls of active or inactive are those of the source. The rule behind the calls is not given here.

Series [1] relates to Brugia malayi. As to the kind of experiment: Inhibition of recombinant Brugia malayi MPK1a at 1 uM using FAM-p38tide as substrate by IMAP assay relative to control.
A short description of series [2]: Inhibition of recombinant Brugia malayi MPK1a using FAM-p38tide as substrate by IMAP assay.
Series [3] can be described thus: Inhibition of sodium arsenate activated N-terminal GST-tagged Brugia malayi MPK1 expressed in HEK293F cells using FAM-p38tide as substrate by IMAP assay.
Series [4] deals with Mitogen-activated protein kinase 14 (Homo sapiens, UniProt Q16539). As to the kind of experiment: Inhibition of human p38alpha using FAM-p38tide as substrate by IMAP assay.
Sequence of Mitogen-activated protein kinase 14 (Q16539 whole entry): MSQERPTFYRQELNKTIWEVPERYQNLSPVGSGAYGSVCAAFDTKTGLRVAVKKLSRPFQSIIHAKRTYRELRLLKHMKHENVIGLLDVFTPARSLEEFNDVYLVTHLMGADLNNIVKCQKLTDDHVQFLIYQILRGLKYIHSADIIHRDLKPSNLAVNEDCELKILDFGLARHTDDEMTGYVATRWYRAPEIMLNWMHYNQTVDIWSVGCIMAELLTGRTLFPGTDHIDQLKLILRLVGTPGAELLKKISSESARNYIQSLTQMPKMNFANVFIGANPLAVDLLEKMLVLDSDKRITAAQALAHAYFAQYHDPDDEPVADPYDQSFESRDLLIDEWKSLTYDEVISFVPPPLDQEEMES
Series [5] concerns Brugia malayi. As to the kind of experiment: Antifilarial activity against Brugia malayi microfilaria assessed as increase in copper-induced reduction in parasite motility at 0.1 to 1 uM measured daily for 5 days. Format: functional, organism-based.
The test system of series [6] is Brugia malayi. As to the kind of experiment: Antifilarial activity against adult Brugia malayi assessed as increase in copper-induced reduction in parasite motility at 0.1 to 1 uM measured daily for 5 days. It counts as functional, organism-based.
Series [7] is described as follows: Stability in human microsomes assessed as parent compound remaining after 1 hr. Format: ADME, Microsome. The note with it: read-out: Stability.
Series [8] can be described thus: Stability in mouse microsomes assessed as parent compound remaining after 1 hr. Format: ADME, Microsome. The note with it: read-out: Stability.
Series [9] has as its target CYP3A4 (Homo sapiens, UniProt P08684). As to the kind of experiment: Inhibition of CYP3A4 (unknown origin) at 5 uM relative to control. Format: ADME.
Series [10] deals with CYP2C9 (Homo sapiens, UniProt P11712). As to the kind of experiment: Inhibition of CYP2C9 (unknown origin) at 5 uM relative to control. Format: ADME.
Sequence of CYP2C9 (P11712 whole entry): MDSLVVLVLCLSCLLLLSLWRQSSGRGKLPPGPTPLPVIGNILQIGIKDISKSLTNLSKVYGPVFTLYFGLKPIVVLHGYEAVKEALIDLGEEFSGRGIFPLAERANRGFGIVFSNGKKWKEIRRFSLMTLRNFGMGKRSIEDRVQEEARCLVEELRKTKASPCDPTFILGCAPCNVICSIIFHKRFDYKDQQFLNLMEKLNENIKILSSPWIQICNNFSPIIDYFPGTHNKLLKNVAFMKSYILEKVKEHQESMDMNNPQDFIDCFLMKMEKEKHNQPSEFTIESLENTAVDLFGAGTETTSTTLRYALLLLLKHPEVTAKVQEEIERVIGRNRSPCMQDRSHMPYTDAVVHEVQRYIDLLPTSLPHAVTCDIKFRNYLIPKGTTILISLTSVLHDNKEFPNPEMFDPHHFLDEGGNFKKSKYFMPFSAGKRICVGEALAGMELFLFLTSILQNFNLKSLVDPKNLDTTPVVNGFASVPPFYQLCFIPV
Series [11] concerns the target CYP2D6 (Homo sapiens, UniProt P10635). As to the kind of experiment: Inhibition of CYP2D6 (unknown origin) at 5 uM relative to control. Format: ADME.
Series [12] deals with CYP2C19 (Homo sapiens, UniProt P33261). As to the kind of experiment: Inhibition of CYP2C19 (unknown origin) at 5 uM relative to control. It counts as ADME.
Sequence of CYP2C19 (P33261 whole entry): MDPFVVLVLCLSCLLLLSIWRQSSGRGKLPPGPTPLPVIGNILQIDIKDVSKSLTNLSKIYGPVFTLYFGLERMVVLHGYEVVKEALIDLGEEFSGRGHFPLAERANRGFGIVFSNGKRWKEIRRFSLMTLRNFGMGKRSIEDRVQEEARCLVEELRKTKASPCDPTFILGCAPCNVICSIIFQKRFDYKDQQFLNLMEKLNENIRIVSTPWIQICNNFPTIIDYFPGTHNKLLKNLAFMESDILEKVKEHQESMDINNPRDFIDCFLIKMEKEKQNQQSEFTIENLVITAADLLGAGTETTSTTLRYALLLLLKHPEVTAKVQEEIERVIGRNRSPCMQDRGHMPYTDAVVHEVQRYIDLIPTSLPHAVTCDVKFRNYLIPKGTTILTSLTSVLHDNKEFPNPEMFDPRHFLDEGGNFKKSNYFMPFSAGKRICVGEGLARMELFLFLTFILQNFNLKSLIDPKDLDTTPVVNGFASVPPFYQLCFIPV
In series [13] the target is T1, CYP1A2 (Homo sapiens, UniProt P05177).
T1 sequence (P05177 whole entry): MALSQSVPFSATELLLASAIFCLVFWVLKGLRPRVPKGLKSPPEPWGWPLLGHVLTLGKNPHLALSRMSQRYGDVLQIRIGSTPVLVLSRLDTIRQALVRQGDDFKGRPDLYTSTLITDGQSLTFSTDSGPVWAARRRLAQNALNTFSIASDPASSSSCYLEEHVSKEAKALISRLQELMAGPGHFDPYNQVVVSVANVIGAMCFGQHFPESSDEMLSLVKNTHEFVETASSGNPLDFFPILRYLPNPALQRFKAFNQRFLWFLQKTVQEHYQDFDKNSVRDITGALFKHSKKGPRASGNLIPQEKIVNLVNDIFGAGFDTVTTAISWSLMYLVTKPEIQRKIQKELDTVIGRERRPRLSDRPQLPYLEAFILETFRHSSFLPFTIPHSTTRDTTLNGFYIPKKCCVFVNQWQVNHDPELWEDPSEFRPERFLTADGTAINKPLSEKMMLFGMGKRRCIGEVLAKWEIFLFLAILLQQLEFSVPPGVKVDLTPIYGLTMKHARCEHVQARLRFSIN
As to the kind of experiment: Inhibition of CYP1A2 (unknown origin) at 5 uM relative to control. It counts as ADME.

Series [14] is described as follows: Cmax in mouse at 30 mg/kg, po. It counts as ADME, organism-based. Also on record: dose 30 mg/kg, route oral. The conditions noted are these: in vivo.
Series [15] in a line: Tmax in mouse at 30 mg/kg, po. It counts as ADME, organism-based. The conditions noted are these: in vivo.
Series [16] is described as follows: AUC in mouse at 30 mg/kg, po. The note with it: in vivo. It counts as ADME, organism-based.
The subject of series [17] is Mus musculus. As to the kind of experiment: Time at which plasma concentration stays above in vitro IC50 for Brugia malayi MPK1a in mouse at 30 mg/kg, po. Format: ADME, organism-based. The conditions noted are these: in vivo.
Series [18] can be described thus: Protein binding in mouse plasma. Format: ADME, cell-free. The conditions noted are these: read-out: PPB (converted).
Series [19] is described as follows: Ratio of unbound Cmax in mouse at 30 mg/kg, po to IC50 for Brugia malayi MPK1a. It counts as ADME, organism-based. The conditions noted are these: in vivo.
The target in series [20] is Mitogen-activated protein kinase 10 (Homo sapiens) (UniProt P53779). As to the kind of experiment: Inhibition of human JNK3 FAM-EGFR-derived peptide as substrate by IMAP assay.
Sequence of Mitogen-activated protein kinase 10 (Homo sapiens) (P53779 whole entry, looked up): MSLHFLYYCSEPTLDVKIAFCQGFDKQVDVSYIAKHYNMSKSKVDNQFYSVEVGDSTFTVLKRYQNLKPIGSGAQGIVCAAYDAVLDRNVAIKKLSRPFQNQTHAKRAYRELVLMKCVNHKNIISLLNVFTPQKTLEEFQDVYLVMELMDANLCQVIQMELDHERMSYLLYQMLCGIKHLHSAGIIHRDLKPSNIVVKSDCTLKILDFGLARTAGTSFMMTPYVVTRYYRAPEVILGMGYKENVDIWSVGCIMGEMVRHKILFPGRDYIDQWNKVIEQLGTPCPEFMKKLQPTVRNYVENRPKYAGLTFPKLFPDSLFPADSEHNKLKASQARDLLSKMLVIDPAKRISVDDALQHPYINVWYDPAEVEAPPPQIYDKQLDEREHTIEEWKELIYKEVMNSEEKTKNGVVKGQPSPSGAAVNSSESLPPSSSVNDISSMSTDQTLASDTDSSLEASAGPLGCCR

Sequence of CYP3A4 (P08684 whole entry): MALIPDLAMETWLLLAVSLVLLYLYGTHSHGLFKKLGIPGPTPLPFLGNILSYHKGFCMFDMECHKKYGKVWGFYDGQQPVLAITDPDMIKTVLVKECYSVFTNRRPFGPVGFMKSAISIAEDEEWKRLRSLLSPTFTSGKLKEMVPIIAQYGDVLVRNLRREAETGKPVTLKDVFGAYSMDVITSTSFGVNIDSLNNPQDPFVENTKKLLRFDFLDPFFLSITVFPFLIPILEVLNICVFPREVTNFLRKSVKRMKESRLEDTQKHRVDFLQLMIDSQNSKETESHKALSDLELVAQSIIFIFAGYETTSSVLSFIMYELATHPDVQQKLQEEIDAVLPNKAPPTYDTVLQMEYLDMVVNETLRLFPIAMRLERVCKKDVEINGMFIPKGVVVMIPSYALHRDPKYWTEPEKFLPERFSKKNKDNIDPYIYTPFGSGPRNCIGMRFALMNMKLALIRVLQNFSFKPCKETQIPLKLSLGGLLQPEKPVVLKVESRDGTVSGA
Sequence of CYP2D6 (P10635 whole entry): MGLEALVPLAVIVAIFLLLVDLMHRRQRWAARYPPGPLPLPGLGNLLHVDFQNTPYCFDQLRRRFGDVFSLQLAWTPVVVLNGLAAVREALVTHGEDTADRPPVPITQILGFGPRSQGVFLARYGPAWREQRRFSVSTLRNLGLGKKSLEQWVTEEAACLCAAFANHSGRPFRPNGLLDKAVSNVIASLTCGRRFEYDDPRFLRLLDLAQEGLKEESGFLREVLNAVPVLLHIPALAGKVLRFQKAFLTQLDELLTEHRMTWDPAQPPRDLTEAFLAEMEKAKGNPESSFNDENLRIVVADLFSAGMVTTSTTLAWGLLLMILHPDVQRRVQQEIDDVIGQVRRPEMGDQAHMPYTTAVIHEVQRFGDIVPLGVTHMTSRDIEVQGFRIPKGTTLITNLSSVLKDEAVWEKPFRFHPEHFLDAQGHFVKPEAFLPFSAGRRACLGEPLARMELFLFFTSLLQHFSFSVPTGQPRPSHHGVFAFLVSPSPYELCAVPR

In general, inhibition refers to the share of the control response that was lost under treatment. The IC50 is the concentration that inhibits the measured activity by half. Take `Cc1onc(-c2ccccc2)c1-c1ccnc(N[C@H]2CC[C@@H](NC(=O)OC(C)(C)C)CC2)n1`: the inhibition in series [1] was 90%. Also, the IC50 in series [2] was 94 nM.

Turning to `Cc1ccc(-n2nc(C(C)(C)C)cc2NC(=O)Nc2ccc(OCCN3CCOCC3)c3ccccc23)cc1` [DORAMAPIMOD], the midpoint of inhibition in series [3], the IC50, lay at 140 nM.

As to `Cc1onc(-c2ccccc2)c1-c1ccnc(NCCCNC(=O)OC(C)(C)C)n1`, the inhibition in [1] was 45%.

With `Cc1onc(-c2ccccc2)c1-c1ccnc(NC2CCN(C(=O)OC(C)(C)C)CC2)n1`, in series [1], the inhibition came out at 0%.

Usually Cmax stands for the maximum level reached in the sampled fluid or tissue. In general, Tmax refers to the time at which the peak concentration occurs. One may read the AUC as concentration integrated over time. A low value points to less exposure. For `CC(=O)N[C@H]1CC[C@H](Nc2nccc(-c3c(-c4ccccc4)noc3C)n2)CC1`, the inhibition in series [1] amounted to 93%. The half-inhibitory concentration (IC50) in series [2] amounted to 24 nM; in series [4] it was 26 nM; in series [20], 170 nM. The outcome in series [5] and in series [6] was Active. The remaining at 1 h in series [7] and in series [8] was 89% each time. The inhibition at 5 µM came to 51% in series [9]; 59% in [10]; 32% in series [11]; 76% in [12]; 29% in [13]. Besides, the Cmax in series [14] was determined as 2960 nM. The Tmax in series [15] is 30 min. Also, in series [16], the AUC is 5.3 µM·h. The compound also gave a Time in series [17] of 8 h. Also, the fraction unbound in series [18] is 0.08. For the same compound, the Ratio in series [19] came out at 10.

Regarding `Cc1onc(-c2ccccc2)c1-c1ccnc(NC2CCCN(C(=O)OC(C)(C)C)C2)n1` (racemic), the inhibition in [1] is 45%.

`CC(=O)N[C@H]1CC[C@@H](Nc2nccc(-c3c(-c4ccccc4)noc3C)n2)CC1`: in [1], the inhibition was determined as 91%. Besides, the IC50 in [2] turned out to be 94 nM.

For `Cc1onc(-c2ccccc2)c1-c1ccnc(N[C@@H]2CCNC2)n1`, the inhibition in series [1] was 64%. Moreover, the IC50 in [2] was determined as 700 nM.

For `Cc1onc(-c2ccccc2)c1-c1ccnc(N[C@@H]2CCN(C(=O)c3ccccc3)C2)n1`, the inhibition in series [1] is 12%.

As for `Cc1onc(-c2ccccc2)c1-c1ccnc(N[C@H]2CCN(C(=O)OC(C)(C)C)C2)n1`, the inhibition in series [1] stood at 0%. In addition, the IC50 in series [2] worked out at 360 nM.

Regarding `Cc1onc(-c2ccccc2)c1-c1ccnc(NCCNC(=O)OC(C)(C)C)n1`, the inhibition in series [1] is 0%.

On to `CC(=O)N1CC[C@@H](Nc2nccc(-c3c(-c4ccccc4)noc3C)n2)C1`, for which the inhibition in [1] was 87%. Moreover, the IC50 in [2] came to 130 nM.

For the compound `Cc1onc(-c2ccccc2)c1-c1ccnc(N[C@H]2CC[C@H](NC(=O)OC(C)(C)C)CC2)n1`, the inhibition in [1] turned out to be 83%. Also, in series [2], the IC50 is 200 nM.

For `CC(=O)N1CC[C@@H](Nc2nccc(-c3c(-c4ccccn4)noc3C)n2)C1`, the inhibition in series [1] was 7%.

For `CC(=O)N1CC[C@@H](Nc2nccc(-c3c(-c4ccccc4)noc3C(F)(F)F)n2)C1`, in series [1], the inhibition stood at 28%.

With `C[S+]([O-])c1ccc(-c2nc(-c3ccc(F)cc3)c(-c3ccncc3)[nH]2)cc1` (stereo unspecified) [SB-203580], the 50% inhibitory concentration (IC50) in [3] worked out at 220 nM.

For `CC(=O)N1CC[C@@H](Nc2nccc(-c3c(-c4cccnc4)noc3C)n2)C1`, in [1], the inhibition came to 3%.

Consider `OCCC#Cc1nc(-c2ccc(F)cc2)c(-c2ccncc2)n1CCCc1ccccc1` [RWJ-67657], for which half-maximal inhibition in [3] (IC50) required 120 nM.

With `Cc1onc(-c2ccccc2)c1-c1ccnc(N[C@@H]2CCN(S(=O)(=O)c3ccccc3)C2)n1`, the inhibition in series [1] stood at 44%.

Regarding `Cc1onc(-c2ccccc2)c1-c1ccnc(N[C@@H]2CCN(C(=O)OC(C)(C)C)C2)n1`, the inhibition in series [1] came out at 78%.

In the case of `Cc1onc(-c2ccccc2)c1-c1ccnc(N[C@@H]2CCN(S(C)(=O)=O)C2)n1`, the inhibition in series [1] is 70%. Further, in series [2], the half-maximal inhibitory concentration (IC50) stood at 520 nM.

The values are drawn from ChEMBL document CHEMBL4251696, “Discovery of a Stress-Activated Protein Kinase Inhibitor for Lymphatic Filariasis” (ACS Med Chem Lett, 2018).
